Results from ChEMBL document CHEMBL1126362, “Episulfide inhibitors of lipoxygenase” (Bioorg Med Chem Lett, 1992).

target: T1, Seed linoleate 13S-lipoxygenase-1 (Glycine max, UniProt P08170); assay: Inhibitory activity against Soybean type 1 Lipoxygenase (SBLO) was determined
T1 sequence (P08170 whole entry): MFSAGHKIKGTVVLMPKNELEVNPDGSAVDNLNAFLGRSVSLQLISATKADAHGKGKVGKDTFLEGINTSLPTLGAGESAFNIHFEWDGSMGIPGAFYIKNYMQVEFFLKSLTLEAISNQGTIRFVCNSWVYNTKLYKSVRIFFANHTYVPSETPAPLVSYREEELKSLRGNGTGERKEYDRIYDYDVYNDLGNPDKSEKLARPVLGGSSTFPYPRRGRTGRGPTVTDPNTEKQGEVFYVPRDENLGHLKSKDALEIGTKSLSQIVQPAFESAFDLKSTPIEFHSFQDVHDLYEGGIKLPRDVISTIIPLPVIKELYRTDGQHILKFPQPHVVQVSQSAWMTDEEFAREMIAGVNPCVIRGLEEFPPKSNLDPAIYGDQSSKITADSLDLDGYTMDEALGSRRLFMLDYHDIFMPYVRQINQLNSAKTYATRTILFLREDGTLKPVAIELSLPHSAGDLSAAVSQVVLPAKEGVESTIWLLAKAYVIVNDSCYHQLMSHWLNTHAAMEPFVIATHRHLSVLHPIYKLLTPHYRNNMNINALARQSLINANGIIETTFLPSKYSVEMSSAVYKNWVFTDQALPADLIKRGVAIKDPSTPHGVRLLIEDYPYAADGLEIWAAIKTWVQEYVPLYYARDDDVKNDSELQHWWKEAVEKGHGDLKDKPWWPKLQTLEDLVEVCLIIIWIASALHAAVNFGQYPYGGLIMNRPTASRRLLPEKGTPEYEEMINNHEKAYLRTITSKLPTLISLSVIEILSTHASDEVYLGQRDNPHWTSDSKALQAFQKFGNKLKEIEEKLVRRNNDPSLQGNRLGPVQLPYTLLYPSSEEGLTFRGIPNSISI

Compound	Ki
CCCCCCCCC1OC1CCCCCCCC(=O)O (configuration not stated)	> 100 µM
CCCCCC1OC1CCCCCCCCCCC(=O)O (configuration not stated)	> 100 µM
CCCCCC1SC1C/C=C/CCCCCCCC(=O)O (configuration not stated)	2 µM
CCCCC/C=C/CC1OC1CCCCCCCC(=O)O (configuration not stated)	> 100 µM
CCCCCCCCC1SC1CCCCCCCC(=O)O (configuration not stated)	> 100 µM
CCCCCC1SC1CCCCCCCCCCC(=O)O (configuration not stated)	4 µM
CCCCC/C=C/CC1SC1CCCCCCCC(=O)O (configuration not stated)	> 100 µM
